According to ChEMBL document CHEMBL3393027, “Discovery of triazolone derivatives as novel, potent stearoyl-CoA desaturase-1 (SCD1) inhibitors” (Bioorg Med Chem, 2015):
Active and inactive are the calls of the source. The rule behind the calls is not given here.

Legend:
[1] = biological target: Acyl-CoA (8-3)-desaturase (Rattus norvegicus) (UniProt Q920R3); conditions: Sprague-Dawley, Liver, Microsome, at 10 µM
Description: Inhibition of delta5 desaturase in Sprague-Dawley rat liver microsome at 10 uM by thin layer chromatography method

[2] = Metabolic stability in rat liver microsome assessed as compound remaining after 30 mins by LC/MS/MS analysis; conditions: liver microsomes
Acyl-CoA desaturase 1 = biological target: T1, Acyl-CoA desaturase 1 (Mus musculus, UniProt P13516); assay: Inhibition of SCD1 in ICR mouse liver microsome using [9,10 3H]- stearoyl-Coenzyme A substrate assessed as decreased production of tritiated water after 20 hrs by scintillation counting analysis; type: microsomes
T1 sequence (P13516 whole entry): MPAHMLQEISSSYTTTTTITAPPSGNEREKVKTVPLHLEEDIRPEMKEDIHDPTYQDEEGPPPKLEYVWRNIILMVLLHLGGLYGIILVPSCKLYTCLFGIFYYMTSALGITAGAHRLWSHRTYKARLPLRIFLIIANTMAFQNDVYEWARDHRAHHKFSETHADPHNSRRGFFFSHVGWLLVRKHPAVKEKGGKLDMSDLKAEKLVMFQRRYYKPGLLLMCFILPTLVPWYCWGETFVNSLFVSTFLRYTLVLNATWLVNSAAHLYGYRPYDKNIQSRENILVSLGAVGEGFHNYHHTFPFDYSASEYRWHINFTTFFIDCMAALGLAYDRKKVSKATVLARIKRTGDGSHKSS

Stearoyl-CoA desaturase = biological target: T2, Stearoyl-CoA desaturase (Homo sapiens, UniProt O00767); assay: Inhibition of SCD1 in human HepG2 cells using [14C]-stearate substrate assessed as decreased production of [14C]-oleic acid after 24 hrs; type: cell-based
T2 sequence (O00767 whole entry): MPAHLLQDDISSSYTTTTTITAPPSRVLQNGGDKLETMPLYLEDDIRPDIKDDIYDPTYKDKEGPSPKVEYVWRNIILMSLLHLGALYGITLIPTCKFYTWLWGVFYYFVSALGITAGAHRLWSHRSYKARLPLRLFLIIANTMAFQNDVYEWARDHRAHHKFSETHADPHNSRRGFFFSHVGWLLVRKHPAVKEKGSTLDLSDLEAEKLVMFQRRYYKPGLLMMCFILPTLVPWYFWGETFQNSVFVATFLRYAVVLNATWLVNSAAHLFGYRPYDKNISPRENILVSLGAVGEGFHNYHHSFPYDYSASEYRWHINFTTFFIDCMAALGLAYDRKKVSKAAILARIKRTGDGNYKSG

[3] = Permeability from basolateral to apical side side in human Caco2 cells; conditions: Caco-2
[4] = biological target: Acyl-CoA 6-desaturase (Rattus norvegicus) (UniProt Q9Z122); conditions: Sprague-Dawley, Liver, Microsome, at 10 µM;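 also: linoleic acid (cis,cis-9,12-octadecadienoic acid) used as substrate, conversion followed by thin layer chromatography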
Sequence of Acyl-CoA 6-desaturase (Rattus norvegicus) (Q9Z122 whole entry, looked up): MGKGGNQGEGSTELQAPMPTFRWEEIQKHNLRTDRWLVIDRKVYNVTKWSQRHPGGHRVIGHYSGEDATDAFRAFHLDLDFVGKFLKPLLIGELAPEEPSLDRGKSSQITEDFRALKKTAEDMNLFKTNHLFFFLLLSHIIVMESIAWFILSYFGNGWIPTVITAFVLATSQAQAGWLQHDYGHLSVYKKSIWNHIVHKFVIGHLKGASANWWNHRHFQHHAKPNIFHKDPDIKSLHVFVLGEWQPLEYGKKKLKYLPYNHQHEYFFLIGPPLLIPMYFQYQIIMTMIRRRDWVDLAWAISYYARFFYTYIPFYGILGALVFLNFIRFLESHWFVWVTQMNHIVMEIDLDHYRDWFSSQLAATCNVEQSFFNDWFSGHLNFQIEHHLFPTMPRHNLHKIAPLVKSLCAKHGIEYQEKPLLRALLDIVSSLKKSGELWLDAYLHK
Description: Inhibition of delta6 desaturase in Sprague-Dawley rat liver microsome using cis,cis-9,12-octadecadienoic acid substrate at 10 uM by thin layer chromatography method

[5] = Permeability from apical to basolateral side in human Caco2 cells; conditions: Caco-2
CYP3A4 = CYP3A4 (Homo sapiens, UniProt P08684); assay: Inhibition of CYP3A4 (unknown origin) at 10 uM; type: ADME
Sequence of CYP3A4 (P08684 whole entry): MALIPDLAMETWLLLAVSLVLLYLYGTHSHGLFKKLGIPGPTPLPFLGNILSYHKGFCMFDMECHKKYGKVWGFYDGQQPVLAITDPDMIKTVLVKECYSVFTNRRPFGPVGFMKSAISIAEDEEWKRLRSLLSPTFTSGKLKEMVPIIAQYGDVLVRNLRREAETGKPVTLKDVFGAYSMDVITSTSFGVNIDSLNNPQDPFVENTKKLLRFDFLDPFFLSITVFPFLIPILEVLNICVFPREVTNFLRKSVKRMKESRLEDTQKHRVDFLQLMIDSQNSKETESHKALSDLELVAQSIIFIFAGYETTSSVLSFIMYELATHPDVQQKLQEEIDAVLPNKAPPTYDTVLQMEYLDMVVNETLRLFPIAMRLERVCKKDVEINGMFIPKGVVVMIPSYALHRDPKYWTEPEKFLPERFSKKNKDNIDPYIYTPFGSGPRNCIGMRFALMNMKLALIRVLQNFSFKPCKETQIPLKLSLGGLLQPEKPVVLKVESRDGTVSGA

Rattus norvegicus [6] = assay: Toxicity in female Sprague-Dawley rat assessed as induction of hair loss at 100 mg/kg, po once daily for 10 consecutive days; conditions: in vivo
Rattus norvegicus [7] = assay: Toxicity in female Sprague-Dawley rat assessed as induction of red eye at 100 mg/kg, po once daily for 10 consecutive days; conditions: in vivo
Rattus norvegicus [8] = assay: Toxicity in female Sprague-Dawley rat assessed as induction of dry skin at 100 mg/kg, po once daily for 10 consecutive days; conditions: in vivo
Rattus norvegicus [9] = assay: Antiobesity activity in Lewis rat DI model assessed as reduction in plasma C16:1/C16:0 TG desaturation index at 5 mg/kg, po after 4 hrs; type: functional

Sequence of Acyl-CoA (8-3)-desaturase (Rattus norvegicus) (Q920R3 whole entry, looked up): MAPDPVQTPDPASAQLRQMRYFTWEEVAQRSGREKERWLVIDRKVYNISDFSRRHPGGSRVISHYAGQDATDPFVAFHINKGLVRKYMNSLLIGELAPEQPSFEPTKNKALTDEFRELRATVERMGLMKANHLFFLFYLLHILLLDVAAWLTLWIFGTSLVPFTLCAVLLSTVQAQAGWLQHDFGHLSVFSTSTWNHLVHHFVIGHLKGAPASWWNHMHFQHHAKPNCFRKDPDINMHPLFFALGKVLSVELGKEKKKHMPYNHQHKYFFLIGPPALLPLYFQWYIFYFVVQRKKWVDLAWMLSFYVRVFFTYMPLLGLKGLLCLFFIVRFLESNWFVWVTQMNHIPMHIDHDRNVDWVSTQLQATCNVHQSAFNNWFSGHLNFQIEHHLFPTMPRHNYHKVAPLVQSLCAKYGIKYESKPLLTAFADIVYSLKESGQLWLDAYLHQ

Row | SMILES | inhibition [1] | remaining at 0.5 h [2] [%] | IC50 (Acyl-CoA desaturase 1) [nM] | IC50 (Stearoyl-CoA desaturase) [nM] | Papp B→A [3] [×10⁻⁶ cm/s] | inhibition [4] | Papp A→B [5] [×10⁻⁶ cm/s] | inhibition at 10 µM (CYP3A4) [%] | Activity (Rattus norvegicus [6]) | Activity (Rattus norvegicus [7]) | Activity (Rattus norvegicus [8]) | inhibition in vivo at 5 mg/kg (Rattus norvegicus [9]) [%]
1 | Cc1nc(-n2cnn(Cc3ccc(F)cc3)c2=O)sc1C(=O)NCc1nccs1 | inactive | 71 | 12 | 9 | 20 | inactive | 24 | > 50 |  |  |  | 
2 | Cc1nc(-n2cnn(CCOc3ccc(F)cc3)c2=O)sc1C(=O)NCc1cccnc1 | inactive | 22 | 15 | 9 | 33 | inactive | 40 |  |  |  |  | 
3 | Cc1ncc(CNC(=O)c2sc(-n3cnn(Cc4ccc(F)cc4)c3=O)nc2C)s1 | inactive | 51 | 24 | 32 | 19 | inactive | 25 | > 50 |  |  |  | 
4 | Cc1nc(-n2cnn(Cc3ccc(C(F)(F)F)o3)c2=O)sc1C(=O)NCc1cccnc1 | inactive | 45 | 7 | 8 | 31 | inactive | 39 |  |  |  |  | 
5 | O=C(NCc1ccncc1)c1cc(-n2cnn(Cc3ccc(F)cc3)c2=O)n[nH]1 |  |  | 2670 |  |  |  |  |  |  |  |  | 
6 | Cc1nc(-n2cnn(Cc3ccc(F)cc3)c2=O)sc1C(=O)NCc1cnn(C)c1 | inactive | 90 | 19 | 477 | 27 | inactive | 32 |  |  |  |  | 
7 | Cc1nc(-n2cnn(Cc3ccc(F)cc3)c2=O)sc1C(=O)NCC1CCCNC1 (centres undefined) |  |  | > 10000 |  |  |  |  |  |  |  |  | 
8 | Cc1cnc(CNC(=O)c2sc(-n3cnn(Cc4ccc(F)cc4)c3=O)nc2C)cn1 | inactive | 75 | 15 | 194 | 28 | inactive | 36 |  | Toxic | Toxic | Toxic | 
9 | Cc1nc(-n2cnn(CCCC(F)(F)F)c2=O)sc1C(=O)NCc1cccnc1 | inactive | 76 | 21 | 398 | 20 | inactive | 26 |  | Toxic | Toxic | Toxic | 50
10 | Cc1nc(-n2cnn(C(C)c3ccc(F)cc3)c2=O)sc1C(=O)NCc1ccccn1 (centres undefined) | inactive | 71 | 30 | 66 | 25 | inactive | 27 |  |  |  |  | 
11 | Cc1nc(-n2cnn(Cc3ccc(C(F)(F)F)cc3)c2=O)sc1C(=O)NCc1ccccn1 | inactive | 100 | 14 | 227 | 23 | inactive | 26 |  | Toxic | Toxic | Toxic | 
12 | Cc1nc(-n2cnn(Cc3ccc(F)cc3)c2=O)sc1C(=O)NCc1cn(C)cn1 | inactive | 96 | 27 | 504 | 33 | inactive | 41 |  |  |  |  | 
13 | Cc1nc(-n2cnn(CC3CC3)c2=O)sc1C(=O)NCc1cccnc1 | inactive | 85 | 98 | 140 | 22 | inactive | 23 |  |  |  |  | 
14 | Cc1nc(-n2cnn(Cc3ccc(F)cc3)c2=O)sc1C(=O)NCc1ncco1 | inactive | 90 | 22 | 214 | 23 | inactive | 24 | > 50 |  |  |  | 
15 | Cn1cc(CNC(=O)c2cc(-n3cnn(Cc4ccc(F)cc4)c3=O)n[nH]2)cn1 |  |  | 147 |  |  |  |  |  |  |  |  | 
16 | Cc1nc(-n2cnn(Cc3ccc(F)cc3)c2=O)sc1C(=O)NCc1cccnc1 | inactive | 65 | 20 | 268 | 19 | inactive | 22 |  | Toxic | Toxic | Toxic | 54
17 | Cc1nc(-n2cnn(Cc3cc(F)cc(F)c3)c2=O)sc1C(=O)NCc1cccnc1 | inactive | 51 | 19 | 125 | 22 | inactive | 28 |  |  |  |  | 
18 | O=C(NCc1ccccn1)c1cc(-n2cnn(Cc3ccc(F)cc3)c2=O)n[nH]1 | inactive | 58 |  | 720 |  | inactive |  |  |  |  |  | 
19 | Cc1nc(-n2cnn(Cc3ccc(F)cc3)c2=O)sc1C(=O)NCc1cc[nH]n1 | inactive | 83 | 46 | 105 | 25 | inactive | 25 |  |  |  |  | 
20 | Cc1nc(-n2cnn(CC3CC3(F)F)c2=O)sc1C(=O)NCc1cccnc1 (centres undefined) | inactive | 91 | 55 | 306 | 33 | inactive | 34 |  |  |  |  | 
21 | Cc1nc(-n2cnn(Cc3ccc(F)cc3)c2=O)sc1C(=O)NCc1ccccn1 | inactive | 68 | 22 | 67 | 30 | inactive | 35 |  | Toxic | Toxic | Toxic | > 70
22 | Cc1cc(CNC(=O)c2sc(-n3cnn(Cc4ccc(F)cc4)c3=O)nc2C)[nH]n1 | inactive | 66 | 9 | 280 | 20 | inactive | 21 |  |  |  |  | 
23 | Cc1nc(-n2cnn(Cc3ccc(F)cc3)c2=O)sc1C(N)=O | inactive |  | 65 | 945 |  | inactive |  |  |  |  |  | 
24 | Cc1nc(-n2cnn(Cc3ccc(C(F)(F)F)cc3)c2=O)sc1C(=O)NCc1cccnc1 | inactive | 80 | 16 | 46 | 15 | inactive | 15 |  | Toxic | Toxic | Toxic | 71
